PubChem BioAssay (NCI)
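In this assay, cells in 96-well plates receive the compound at five concentrations for 48 hours. Endpoints are linearly interpolated between the surrounding concentrations. TGI: concentration producing complete growth inhibition.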

Assays:
Assay in all cases: DTP human tumour cell line panel, 48 h
ACHN renal = system: ACHN renal
XF 498 CNS = system: XF 498 CNS
HL-60(TB) leukemia = system: HL-60(TB) leukemia
UO-31 renal = system: UO-31 renal
LOX IMVI melanoma = system: LOX IMVI melanoma
EKVX NSCLC = system: EKVX NSCLC
SK-MEL-2 melanoma = system: SK-MEL-2 melanoma
IGROV1 ovarian = system: IGROV1 ovarian
OVCAR-8 ovarian = system: OVCAR-8 ovarian
OVCAR-3 ovarian = system: OVCAR-3 ovarian
CAKI-1 renal = system: CAKI-1 renal
HCT-15 colon = system: HCT-15 colon
HOP-18 NSCLC = system: HOP-18 NSCLC
NCI-H226 lung = system: NCI-H226 lung
OVCAR-4 ovarian = system: OVCAR-4 ovarian
M14 melanoma = system: M14 melanoma
RPMI-8226 leukemia = system: RPMI-8226 leukemia
TK-10 renal = system: TK-10 renal
SN12C renal = system: SN12C renal
HCC-2998 colon = system: HCC-2998 colon
SK-MEL-5 melanoma = system: SK-MEL-5 melanoma
LXFL 529 NSCLC = system: LXFL 529 NSCLC
SNB-78 CNS = system: SNB-78 CNS
HOP-92 NSCLC = system: HOP-92 NSCLC
OVCAR-5 ovarian = system: OVCAR-5 ovarian
UACC-62 melanoma = system: UACC-62 melanoma
KM20L2 colon = system: KM20L2 colon
SF-295 CNS = system: SF-295 CNS
SNB-75 CNS = system: SNB-75 CNS
HCT-116 colon = system: HCT-116 colon
RXF 393 renal = system: RXF 393 renal
SW-620 colon = system: SW-620 colon
DMS 114 small cell lung = system: DMS 114 small cell lung
SK-MEL-28 melanoma = system: SK-MEL-28 melanoma
HOP-62 NSCLC = system: HOP-62 NSCLC
SK-OV-3 ovarian = system: SK-OV-3 ovarian
KM12 colon = system: KM12 colon
DLD-1 colon = system: DLD-1 colon
M19-MEL melanoma = system: M19-MEL melanoma
MALME-3M melanoma = system: MALME-3M melanoma
NCI-H460 lung = system: NCI-H460 lung
UACC-257 melanoma = system: UACC-257 melanoma
U251 CNS = system: U251 CNS
RXF-631 renal = system: RXF-631 renal
MOLT-4 leukemia = system: MOLT-4 leukemia
K-562 leukemia = system: K-562 leukemia
CCRF-CEM leukemia = system: CCRF-CEM leukemia
SNB-19 CNS = system: SNB-19 CNS
HT29 colon = system: HT29 colon
DMS 273 small cell lung = system: DMS 273 small cell lung
786-0 renal = system: 786-0 renal
A549 NSCLC = system: A549 NSCLC
COLO 205 colon = system: COLO 205 colon
A498 renal = system: A498 renal
SF-539 CNS = system: SF-539 CNS
SR leukemia = system: SR leukemia
NCI-H23 lung = system: NCI-H23 lung

Molecule CC1(C)C(O)OC(O)C1(C)C (stereo not given) has a TGI (ACHN renal) greater than 100 µM, a TGI (XF 498 CNS) greater than 100 µM and a TGI (HL-60(TB) leukemia) greater than 100 µM. The TGI (UO-31 renal) was greater than 100 µM, the TGI (LOX IMVI melanoma) was greater than 100 µM and the TGI (EKVX NSCLC) was greater than 100 µM. It also gave a TGI (SK-MEL-2 melanoma) greater than 100 µM, a TGI (IGROV1 ovarian) greater than 100 µM and a TGI (OVCAR-8 ovarian) greater than 100 µM. For the same molecule, the TGI (OVCAR-3 ovarian) was greater than 100 µM, the TGI (CAKI-1 renal) was greater than 100 µM and the TGI (HCT-15 colon) was greater than 100 µM. The TGI (HOP-18 NSCLC) was greater than 100 µM, the TGI (NCI-H226 lung) was greater than 100 µM and the TGI (OVCAR-4 ovarian) was greater than 100 µM. It also gave a TGI (M14 melanoma) greater than 100 µM, a TGI (RPMI-8226 leukemia) greater than 100 µM and a TGI (TK-10 renal) greater than 100 µM. It also gave a TGI (SN12C renal) greater than 100 µM, a TGI (HCC-2998 colon) greater than 100 µM and a TGI (SK-MEL-5 melanoma) greater than 100 µM. The TGI (LXFL 529 NSCLC) was greater than 100 µM, the TGI (SNB-78 CNS) was greater than 100 µM and the TGI (HOP-92 NSCLC) was greater than 100 µM. The TGI (OVCAR-5 ovarian) was greater than 100 µM, the TGI (UACC-62 melanoma) was greater than 100 µM and the TGI (KM20L2 colon) was greater than 100 µM. For the same molecule, the TGI (SF-295 CNS) was greater than 100 µM, the TGI (SNB-75 CNS) was greater than 100 µM and the TGI (HCT-116 colon) was greater than 100 µM. It also gave a TGI (RXF 393 renal) of 94.6 µM, a TGI (SW-620 colon) greater than 100 µM and a TGI (DMS 114 small cell lung) greater than 100 µM. It also gave a TGI (SK-MEL-28 melanoma) greater than 100 µM, a TGI (HOP-62 NSCLC) greater than 100 µM and a TGI (SK-OV-3 ovarian) greater than 100 µM. It also gave a TGI (KM12 colon) greater than 100 µM, a TGI (DLD-1 colon) greater than 100 µM and a TGI (M19-MEL melanoma) greater than 100 µM. The TGI (MALME-3M melanoma) was greater than 100 µM, the TGI (NCI-H460 lung) was greater than 100 µM and the TGI (UACC-257 melanoma) was greater than 100 µM. For the same molecule, the TGI (U251 CNS) was greater than 100 µM, the TGI (RXF-631 renal) was greater than 100 µM and the TGI (MOLT-4 leukemia) was greater than 100 µM. The TGI (K-562 leukemia) was greater than 100 µM, the TGI (CCRF-CEM leukemia) was greater than 100 µM and the TGI (SNB-19 CNS) was greater than 100 µM. The TGI (HT29 colon) was greater than 100 µM, the TGI (DMS 273 small cell lung) was greater than 100 µM and the TGI (786-0 renal) was greater than 100 µM. The TGI (A549 NSCLC) was greater than 100 µM and the TGI (COLO 205 colon) was greater than 100 µM.

CC(=O)N(C)C=C1C(=O)N(C)C(=O)N(C)C1=O was tested, and the TGI (ACHN renal) was greater than 100 µM, the TGI (XF 498 CNS) was greater than 100 µM and the TGI (HL-60(TB) leukemia) was greater than 100 µM. For the same molecule, the TGI (UO-31 renal) was greater than 100 µM, the TGI (LOX IMVI melanoma) was greater than 100 µM and the TGI (EKVX NSCLC) was greater than 100 µM. It also gave a TGI (SK-MEL-2 melanoma) greater than 100 µM, a TGI (OVCAR-8 ovarian) greater than 100 µM and a TGI (OVCAR-3 ovarian) greater than 100 µM. It also gave a TGI (CAKI-1 renal) greater than 100 µM, a TGI (HCT-15 colon) greater than 100 µM and a TGI (HOP-18 NSCLC) greater than 100 µM. It also gave a TGI (NCI-H226 lung) greater than 100 µM, a TGI (OVCAR-4 ovarian) greater than 100 µM and a TGI (M14 melanoma) greater than 100 µM. For the same molecule, the TGI (RPMI-8226 leukemia) was greater than 100 µM, the TGI (TK-10 renal) was greater than 100 µM and the TGI (SN12C renal) was greater than 100 µM. The TGI (HCC-2998 colon) was greater than 100 µM, the TGI (SK-MEL-5 melanoma) was greater than 100 µM and the TGI (LXFL 529 NSCLC) was greater than 100 µM. It also gave a TGI (HOP-92 NSCLC) greater than 100 µM, a TGI (A498 renal) greater than 100 µM and a TGI (OVCAR-5 ovarian) greater than 100 µM. It also gave a TGI (UACC-62 melanoma) greater than 100 µM, a TGI (KM20L2 colon) greater than 100 µM and a TGI (SF-295 CNS) greater than 100 µM. The TGI (SNB-75 CNS) was greater than 100 µM, the TGI (HCT-116 colon) was greater than 100 µM and the TGI (RXF 393 renal) was greater than 100 µM. It also gave a TGI (SF-539 CNS) greater than 100 µM, a TGI (SW-620 colon) greater than 100 µM and a TGI (DMS 114 small cell lung) greater than 100 µM. For the same molecule, the TGI (SK-MEL-28 melanoma) was greater than 100 µM, the TGI (KM12 colon) was greater than 100 µM and the TGI (DLD-1 colon) was greater than 100 µM. For the same molecule, the TGI (M19-MEL melanoma) was greater than 100 µM, the TGI (MALME-3M melanoma) was greater than 100 µM and the TGI (NCI-H460 lung) was greater than 100 µM. It also gave a TGI (SR leukemia) greater than 100 µM, a TGI (UACC-257 melanoma) greater than 100 µM and a TGI (U251 CNS) greater than 100 µM. The TGI (RXF-631 renal) was greater than 100 µM, the TGI (NCI-H23 lung) was greater than 100 µM and the TGI (MOLT-4 leukemia) was greater than 100 µM. It also gave a TGI (K-562 leukemia) greater than 100 µM, a TGI (CCRF-CEM leukemia) greater than 100 µM and a TGI (SNB-19 CNS) greater than 100 µM. It also gave a TGI (HT29 colon) greater than 100 µM, a TGI (DMS 273 small cell lung) greater than 100 µM and a TGI (786-0 renal) greater than 100 µM. It also gave a TGI (A549 NSCLC) greater than 100 µM.
